The experiment addresses T1, FXR (Homo sapiens, UniProt Q96RI1).
T1 construct: expressed in transfected cells; host or cells: CV-1 cells
T1 sequence (Q96RI1 1-486): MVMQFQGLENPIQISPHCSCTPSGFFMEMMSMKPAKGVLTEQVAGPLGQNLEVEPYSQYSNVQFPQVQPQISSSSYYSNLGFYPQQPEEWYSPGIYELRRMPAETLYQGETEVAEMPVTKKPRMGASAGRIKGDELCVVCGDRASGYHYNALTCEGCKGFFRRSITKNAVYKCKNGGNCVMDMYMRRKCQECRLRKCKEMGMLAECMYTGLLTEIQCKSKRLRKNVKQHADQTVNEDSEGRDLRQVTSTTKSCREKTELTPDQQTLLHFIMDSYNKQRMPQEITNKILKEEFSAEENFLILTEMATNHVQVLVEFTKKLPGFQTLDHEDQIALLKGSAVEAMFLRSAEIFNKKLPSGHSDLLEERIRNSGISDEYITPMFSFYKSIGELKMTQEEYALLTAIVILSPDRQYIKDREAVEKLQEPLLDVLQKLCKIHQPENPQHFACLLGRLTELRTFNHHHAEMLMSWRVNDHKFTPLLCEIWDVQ
T1 sequence (P19793 1-462 partner): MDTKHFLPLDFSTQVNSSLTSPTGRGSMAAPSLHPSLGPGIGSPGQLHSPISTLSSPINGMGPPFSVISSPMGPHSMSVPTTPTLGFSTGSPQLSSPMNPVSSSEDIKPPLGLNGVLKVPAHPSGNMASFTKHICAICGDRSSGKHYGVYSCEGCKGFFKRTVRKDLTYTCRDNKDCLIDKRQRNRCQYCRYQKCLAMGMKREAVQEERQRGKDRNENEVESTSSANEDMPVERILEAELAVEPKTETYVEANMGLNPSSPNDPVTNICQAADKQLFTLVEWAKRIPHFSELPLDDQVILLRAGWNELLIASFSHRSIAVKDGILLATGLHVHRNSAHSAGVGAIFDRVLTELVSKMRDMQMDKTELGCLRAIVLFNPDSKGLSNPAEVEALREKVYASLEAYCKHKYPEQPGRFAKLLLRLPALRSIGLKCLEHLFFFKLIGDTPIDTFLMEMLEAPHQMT
The experiment is described as follows: In Vitro FXR Assay (TK): TK-ECRE-luc reporter in transfected CV-1 cells. As to conditions: CV-1 cells transfected with hFXR, hRXR, 18 h incubation, luminescence. It counts as cell-based. On the procedure:
Example B-2: In Vitro FXR Assay (TK)
CV-1 cells were seeded at a density of 2,000,000 cells in a T175 flask with DMEM+10% charcoal double-stripped FBS and incubated at 37° C. in 5% CO2 for 18 h (O/N).
After 18 h of incubation, the medium in the T175 flask was changed with fresh DMEM+10% charcoal super-stripped serum. In a polypropylene tube, 2500 μL OptiMEM (Life Technologies, Cat #31985-062) was combined with expression plasmids for hFXR, hRXR, TK-ECRE-luc and pCMX-YFP. The tube was then briefly vortexed and incubated at room temperature for 5 minutes. Transfection reagent (X-tremeGENE HP from Roche, Cat #06 366 236 001) was added to the OptiMEM/plasmid mixture vortexed and incubated at room temperature for 20 minutes. Following incubation, the transfection reagent/DNA mixture complex was added to cells in the T175 flask and the cells were incubated at 37° C. in 5% CO2 for 18 h (O/N).
Compounds were serially diluted in DMSO and added to transfected CV-1 cells. The cells were then incubated for 18 hrs. The next day cells were lysed and examined for luminescence.
`COC(=O)/C=C/c1cccc(N(Cc2ccc(-c3ccc(N(C)C)cc3)cc2)C(=O)C2CCC([S+](C)[O-])CC2)c1` (stereo not drawn) [13.20, (E)-Methyl 3-(3-(N-((4′-(dimethylamino)-[1,1′-biphenyl]-4-yl)methyl)-4-(methylsulfinyl)cyclohexanecarboxamido)phenyl)acrylate] yielded an EC50 of 1000 to 10000 nM.
`COC(=O)/C=C/c1cccc(N(Cc2ccc(-c3ccc(N(C)C)cc3)cc2)C(=O)c2ccc(O)cc2)c1` [13.21, (E)-Methyl 3-(3-(N-((4′-(dimethylamino)-[1,1′-biphenyl]-4-yl)methyl)-4-hydroxybenzamido)phenyl)acrylate] gave an EC50 of at most 1000 nM.
Take `COC(=O)/C=C/c1cccc(N(Cc2ccc(-c3ccc(N(C)C)cc3)cc2)C(=O)c2ccc(OCCO)cc2)c1` [13.22, (E)-Methyl 3-(3-(N-((4′-(dimethylamino)-[1,1′-biphenyl]-4-yl)methyl)-4-(2-hydroxyethoxy)benzamido)phenyl)acrylate]: the EC50 was at most 1000 nM.
The compound `COC(=O)/C=C/c1cccc(N(Cc2ccc(-c3ccc(N(C)C)cc3)cc2)C(=O)C(C)(C)CO)c1` [13.23, (E)-Methyl 3-(3-(N-((4′-(dimethylamino)-[1,1′-biphenyl]-4-yl)methyl)-3-hydroxy-2,2-dimethylpropanamido)phenyl)acrylate] came in with an EC50 of 1000 to 10000 nM.
The compound `COC(=O)/C=C/c1cccc(N(Cc2ccc(-c3ccc(N(C)C)cc3)cc2)C(=O)C(C)(C)CCl)c1` [13.24, (E)-Methyl 3-(3-(3-chloro-N-((4′-(dimethylamino)-[1,1′-biphenyl]-4-yl)methyl)-2,2-dimethylpropanamido)phenyl)acrylate] registered an EC50 of at most 1000 nM.
As for `COC(=O)/C=C/c1cccc(N(Cc2ccc(-c3ccc(N(C)C)cc3)cc2)C(=O)C2CCCCO2)c1` (stereo not drawn) [17.1, (E)-Methyl 3-(3-(N-((4′-(dimethylamino)-[1,1′-biphenyl]-4-yl)methyl)tetrahydro-2H-pyran-2-carboxamido)phenyl)acrylate], the EC50 is at most 1000 nM.
As to `COC(=O)/C=C/c1cccc(N(Cc2ccc(-c3ccc(N(C)C)cc3)cc2)C(=O)C2COCCO2)c1` (stereo not drawn) [17.2, (E)-Methyl 3-(3-(N-((4′-(dimethylamino)-[1,1′-biphenyl]-4-yl)methyl)-1,4-dioxane-2-carboxamido)phenyl)acrylate], the EC50 was in the range of 1000 to 10000 nM.
Take `COC(=O)/C=C/c1cccc(N(Cc2ccc(-c3ccc(N(C)C)cc3)cc2)C(=O)C2CCCOC2)c1` (stereo not drawn) [17.3, (E)-Methyl 3-(3-(N-((4′-(dimethylamino)-[1,1′-biphenyl]-4-yl)methyl)tetrahydro-2H-pyran-3-carboxamido)phenyl)acrylate]: the concentration giving a half-maximal response (EC50) lay within 1000 to 10000 nM.
Compound `COC(=O)/C=C/c1cccc(N(Cc2ccc(-c3ccc(OC)c(C)c3)cc2)C(=O)c2ccncc2)c1` [62.1, (E)-Methyl 3-(3-(N-((4′-methoxy-3′-methyl-[1,1′-biphenyl]-4-yl)methyl)isonicotinamido)phenyl)acrylate] came in with an EC50 of 1000 to 10000 nM.
The compound `COC(=O)/C=C/c1cccc(N(Cc2ccc(-c3cccc(C(=O)OC)c3)cc2)C(=O)C2CCCCC2)c1` [62.2, (E)-Methyl 4′-((N-(3-(3-methoxy-3-oxoprop-1-en-1-yl)phenyl)cyclohexanecarboxamido)methyl)-[1,1′-biphenyl]-3-carboxylate] gave an EC50 of 1000 to 10000 nM.
The compound `COC(=O)/C=C/c1cccc(N(Cc2ccc(-c3ccc(C(=O)OC)cc3)cc2)C(=O)C2CCCCC2)c1` [62.3, (E)-Methyl 4′-((N-(3-(3-methoxy-3-oxoprop-1-en-1-yl)phenyl)cyclohexanecarboxamido)methyl)-[1,1′-biphenyl]-4-carboxylate] showed a concentration for a half-maximal effect (EC50) of 1000 to 10000 nM.
For `COC(=O)/C=C/c1cccc(N(Cc2ccc(-c3ccc(S(C)(=O)=O)cc3)cc2)C(=O)C2CCCCC2)c1` [62.4, (E)-Methyl 3-(3-(N-((4′-(methylsulfonyl)-[1,1′-biphenyl]-4-yl)methyl)cyclohexanecarboxamido)phenyl) acrylate] the value was 1000 to 10000 nM.
Take `COC(=O)/C=C/c1cccc(N(Cc2ccc(-c3ccc(OC)c(C)c3)cc2)C(=O)C2CCN(C(=O)OC(C)(C)C)CC2)c1` [62.5, (E)-tert-Butyl 4-(((4′-methoxy-3′-methyl-[1,1′-biphenyl]-4-yl)methyl)(3-(3-methoxy-3-oxoprop-1-en-1-yl)phenyl)carbamoyl)piperidine-1-carboxylate]: the concentration for a half-maximal effect (EC50) is 1000 to 10000 nM.
`COC(=O)/C=C/c1cccc(N(Cc2ccc(-c3cccc(CO)c3)cc2)C(=O)C2CCCCC2)c1` [62.6, (E)-Methyl 3-(3-(N-((3′-(hydroxymethyl)-[1,1′-biphenyl]-4-yl)methyl)cyclohexanecarboxamido)phenyl) acrylate] showed a half-maximal effective concentration (EC50) of 1000 to 10000 nM.
In turn, `COC(=O)/C=C/c1cccc(N(Cc2ccc(-c3ccc(CO)cc3)cc2)C(=O)C2CCCCC2)c1` [62.7, (E)-Methyl 3-(3-(N-((4′-(hydroxymethyl)-[1,1′-biphenyl]-4-yl)methyl)cyclohexanecarboxamido)phenyl) acrylate] showed a concentration giving a half-maximal response (EC50) above 10000 nM.
In turn, `COC(=O)/C=C/c1cccc(N(Cc2ccc(-c3cccc(S(C)(=O)=O)c3)cc2)C(=O)C2CCCCC2)c1` [62.8, (E)-Methyl 3-(3-(N-((3′-(methylsulfonyl)-[1,1′-biphenyl]-4-yl)methyl)cyclohexanecarboxamido)phenyl) acrylate] showed a concentration for a half-maximal effect (EC50) above 10000 nM.
Compound `COC(=O)/C=C/c1cccc(N(Cc2ccc(-c3ccc4c(c3)OCO4)cc2)C(=O)C2CCCCC2)c1` [62.9, (E)-Methyl 3-(3-(N-(4-(benzo[d][1,3]dioxol-5-yl)benzyl)cyclohexanecarboxamido)phenyl) acrylate] yielded an EC50 of at most 1000 nM.
As for `COC(=O)/C=C/c1cccc(N(Cc2ccc(-c3ccc(OC)c(Cl)c3)cc2)C(=O)C2CCCCC2)c1` [62.10, (E)-Methyl 3-(3-(N-((3′-chloro-4′-methoxy-[1,1′-biphenyl]-4-yl)methyl)cyclohexanecarboxamido)phenyl) acrylate], the EC50 is at most 1000 nM.
Regarding `COC(=O)/C=C/c1cccc(N(Cc2ccc(-c3ccc(N(C)C)cc3)c(C#N)c2)C(=O)C2CCCCC2)c1` [62.11, (E)-Methyl 3-(3-(N-((2-cyano-4′-(dimethylamino)-[1,1′-biphenyl]-4-yl)methyl)cyclohexanecarboxamido)phenyl) acrylate], the half-maximal effective concentration (EC50) is at most 1000 nM.
For the compound `COC(=O)/C=C/c1cccc(N(Cc2ccc(-c3ccc(N(C)C)cc3)cc2C#N)C(=O)C2CCCCC2)c1` [62.12, (E)-Methyl 3-(3-(N-((3-cyano-4′-(dimethylamino)-[1,1′-biphenyl]-4-yl)methyl)cyclohexanecarboxamido)phenyl) acrylate], the EC50 was 1000 to 10000 nM.
The compound `CCc1cc(CN(C(=O)C2CCCCC2)c2cccc(/C=C/C(=O)OC)c2)ccc1-c1ccc(N(C)C)cc1` [62.13, (E)-Methyl 3-(3-(N-((4′-(dimethylamino)-2-ethyl-[1,1′-biphenyl]-4-yl)methyl)cyclohexanecarboxamido)phenyl) acrylate] yielded an EC50 of 1000 to 10000 nM.
`CCc1cc(-c2ccc(N(C)C)cc2)ccc1CN(C(=O)C1CCCCC1)c1cccc(/C=C/C(=O)OC)c1` [62.14, (E)-Methyl 3-(3-(N-((4′-(dimethylamino)-3-ethyl-[1,1′-biphenyl]-4-yl)methyl)cyclohexanecarboxamido)phenyl) acrylate] came in with an EC50 of at most 1000 nM.
For `COC(=O)/C=C/c1cccc(N(Cc2ccc(-c3ccc(OC)c(C)c3)cc2)C(=O)C2CCNCC2)c1` [62.15, (E)-Methyl 3-(3-(N-((4′-methoxy-3′-methyl-[1,1′-biphenyl]-4-yl)methyl)piperidine-4-carboxamido)phenyl)acrylate] the value was above 10000 nM; for `COC(=O)/C=C/c1cccc(N(Cc2ccc(-c3ccc(OC)c(C)c3)cc2)C(=O)C2CCN(C(C)=O)CC2)c1` [62.16, (E)-Methyl 3-(3-(1-acetyl-N-((4′-methoxy-3′-methyl-[1,1′-biphenyl]-4-yl)methyl)piperidine-4-carboxamido)phenyl)acrylate], 1000 to 10000 nM.

Usually EC50 stands for the concentration at which the effect is half-maximal. Low values mean greater potency, high ones weaker potency.

These data come from patent US10626081B2, “Farnesoid X receptor agonists and uses thereof” (Metacrine, Inc., priority 2015, dated 2020).
